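Results reflect a 48-hour exposure of cells in 96-well plates to compound at five concentrations. The concentration for full growth arrest is given as TGI.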
Legend:
Test in all cases: inhibition of tumour cell growth, NCI panel, 48 h
UACC-62 melanoma = tested on: UACC-62 melanoma
CCRF-CEM leukemia = tested on: CCRF-CEM leukemia
SK-MEL-2 melanoma = tested on: SK-MEL-2 melanoma
A498 renal = tested on: A498 renal
ACHN renal = tested on: ACHN renal
MOLT-4 leukemia = tested on: MOLT-4 leukemia
DMS 273 small cell lung = tested on: DMS 273 small cell lung
TK-10 renal = tested on: TK-10 renal
DMS 114 small cell lung = tested on: DMS 114 small cell lung
SK-MEL-5 melanoma = tested on: SK-MEL-5 melanoma
M14 melanoma = tested on: M14 melanoma
DLD-1 colon = tested on: DLD-1 colon
CAKI-1 renal = tested on: CAKI-1 renal
SW-620 colon = tested on: SW-620 colon
OVCAR-4 ovarian = tested on: OVCAR-4 ovarian
IGROV1 ovarian = tested on: IGROV1 ovarian
HL-60(TB) leukemia = tested on: HL-60(TB) leukemia
LXFL 529 NSCLC = tested on: LXFL 529 NSCLC
SK-MEL-28 melanoma = tested on: SK-MEL-28 melanoma
SN12C renal = tested on: SN12C renal
HT29 colon = tested on: HT29 colon
A549 NSCLC = tested on: A549 NSCLC
M19-MEL melanoma = tested on: M19-MEL melanoma
HOP-62 NSCLC = tested on: HOP-62 NSCLC
RXF 393 renal = tested on: RXF 393 renal
RPMI-8226 leukemia = tested on: RPMI-8226 leukemia
HCT-15 colon = tested on: HCT-15 colon
HOP-18 NSCLC = tested on: HOP-18 NSCLC
SF-295 CNS = tested on: SF-295 CNS
SF-539 CNS = tested on: SF-539 CNS
SNB-19 CNS = tested on: SNB-19 CNS
KM20L2 colon = tested on: KM20L2 colon
HCT-116 colon = tested on: HCT-116 colon
UACC-257 melanoma = tested on: UACC-257 melanoma
UO-31 renal = tested on: UO-31 renal
OVCAR-3 ovarian = tested on: OVCAR-3 ovarian
OVCAR-5 ovarian = tested on: OVCAR-5 ovarian
SF-268 CNS = tested on: SF-268 CNS
XF 498 CNS = tested on: XF 498 CNS
K-562 leukemia = tested on: K-562 leukemia
NCI-H460 lung = tested on: NCI-H460 lung
HOP-92 NSCLC = tested on: HOP-92 NSCLC
OVCAR-8 ovarian = tested on: OVCAR-8 ovarian
786-0 renal = tested on: 786-0 renal
U251 CNS = tested on: U251 CNS
COLO 205 colon = tested on: COLO 205 colon
SNB-78 CNS = tested on: SNB-78 CNS
NCI-H23 lung = tested on: NCI-H23 lung
SK-OV-3 ovarian = tested on: SK-OV-3 ovarian
EKVX NSCLC = tested on: EKVX NSCLC
SR leukemia = tested on: SR leukemia
MALME-3M melanoma = tested on: MALME-3M melanoma
NCI-H226 lung = tested on: NCI-H226 lung
NCI-H522 lung = tested on: NCI-H522 lung
HCC-2998 colon = tested on: HCC-2998 colon
SNB-75 CNS = tested on: SNB-75 CNS
KM12 colon = tested on: KM12 colon
LOX IMVI melanoma = tested on: LOX IMVI melanoma

COc1ccc(C2N3CCCCC3[C@@H]3c4[nH]c5ccccc5c4CCN23)c(OC)c1 (stereo partly specified)
TGI (UACC-62 melanoma): 31 µM | TGI (CCRF-CEM leukemia): 63.3 µM | TGI (SK-MEL-2 melanoma): 34.7 µM | TGI (A498 renal): 30.1 µM | TGI (ACHN renal): 55.2 µM | TGI (MOLT-4 leukemia): 49.9 µM | TGI (DMS 273 small cell lung): 34.3 µM | TGI (TK-10 renal): 69.1 µM | TGI (DMS 114 small cell lung): 38.4 µM | TGI (SK-MEL-5 melanoma): 32.7 µM | TGI (M14 melanoma): 30.5 µM | TGI (DLD-1 colon): > 100 µM | TGI (CAKI-1 renal): > 100 µM | TGI (SW-620 colon): > 100 µM | TGI (OVCAR-4 ovarian): 56.5 µM | TGI (IGROV1 ovarian): > 100 µM | TGI (HL-60(TB) leukemia): 42 µM | TGI (LXFL 529 NSCLC): 49.9 µM | TGI (SK-MEL-28 melanoma): 36.9 µM | TGI (SN12C renal): 33.8 µM | TGI (HT29 colon): 32.6 µM | TGI (A549 NSCLC): > 100 µM | TGI (M19-MEL melanoma): 37.4 µM | TGI (HOP-62 NSCLC): > 100 µM | TGI (RXF 393 renal): 34.6 µM | TGI (RPMI-8226 leukemia): 45.6 µM | TGI (HCT-15 colon): > 100 µM | TGI (HOP-18 NSCLC): > 100 µM | TGI (SF-295 CNS): > 100 µM | TGI (SF-539 CNS): 35.2 µM | TGI (SNB-19 CNS): > 100 µM | TGI (KM20L2 colon): 41.9 µM | TGI (HCT-116 colon): 38 µM | TGI (UACC-257 melanoma): 72.4 µM | TGI (UO-31 renal): 74.1 µM | TGI (OVCAR-3 ovarian): 85.3 µM | TGI (OVCAR-5 ovarian): 79.7 µM | TGI (SF-268 CNS): 53 µM | TGI (XF 498 CNS): 28.2 µM | TGI (K-562 leukemia): > 100 µM | TGI (NCI-H460 lung): 50.2 µM | TGI (HOP-92 NSCLC): > 100 µM | TGI (OVCAR-8 ovarian): > 100 µM | TGI (786-0 renal): > 100 µM | TGI (U251 CNS): > 100 µM | TGI (COLO 205 colon): 43.2 µM | TGI (SNB-78 CNS): 49 µM | TGI (NCI-H23 lung): 58.7 µM | TGI (SK-OV-3 ovarian): 92.3 µM | TGI (EKVX NSCLC): > 100 µM

Cc1cccc(C)c1NC(=O)CCCC(=O)C(C#N)c1ccc(Cl)cc1 (stereo unspecified)
TGI (SR leukemia): > 100 µM | TGI (MALME-3M melanoma): > 100 µM | TGI (UACC-62 melanoma): > 100 µM | TGI (CCRF-CEM leukemia): > 100 µM | TGI (SK-MEL-2 melanoma): > 100 µM | TGI (A498 renal): > 100 µM | TGI (ACHN renal): > 100 µM | TGI (MOLT-4 leukemia): > 100 µM | TGI (DMS 273 small cell lung): > 100 µM | TGI (TK-10 renal): > 100 µM | TGI (DMS 114 small cell lung): > 100 µM | TGI (SK-MEL-5 melanoma): > 100 µM | TGI (M14 melanoma): > 100 µM | TGI (NCI-H226 lung): > 100 µM | TGI (NCI-H522 lung): > 100 µM | TGI (DLD-1 colon): > 100 µM | TGI (HCC-2998 colon): > 100 µM | TGI (CAKI-1 renal): > 100 µM | TGI (SW-620 colon): > 100 µM | TGI (OVCAR-4 ovarian): > 100 µM | TGI (IGROV1 ovarian): > 100 µM | TGI (HL-60(TB) leukemia): > 100 µM | TGI (SNB-75 CNS): > 100 µM | TGI (LXFL 529 NSCLC): > 100 µM | TGI (SK-MEL-28 melanoma): > 100 µM | TGI (SN12C renal): > 100 µM | TGI (HT29 colon): > 100 µM | TGI (A549 NSCLC): > 100 µM | TGI (M19-MEL melanoma): > 100 µM | TGI (HOP-62 NSCLC): > 100 µM | TGI (RPMI-8226 leukemia): > 100 µM | TGI (HCT-15 colon): > 100 µM | TGI (HOP-18 NSCLC): > 100 µM | TGI (SF-295 CNS): > 100 µM | TGI (SF-539 CNS): > 100 µM | TGI (SNB-19 CNS): > 100 µM | TGI (KM20L2 colon): > 100 µM | TGI (HCT-116 colon): > 100 µM | TGI (KM12 colon): > 100 µM | TGI (UACC-257 melanoma): > 100 µM | TGI (UO-31 renal): > 100 µM | TGI (OVCAR-3 ovarian): > 100 µM | TGI (OVCAR-5 ovarian): > 100 µM | TGI (SF-268 CNS): > 100 µM | TGI (K-562 leukemia): > 100 µM | TGI (NCI-H460 lung): > 100 µM | TGI (HOP-92 NSCLC): > 100 µM | TGI (OVCAR-8 ovarian): > 100 µM | TGI (786-0 renal): > 100 µM | TGI (U251 CNS): > 100 µM | TGI (COLO 205 colon): > 100 µM | TGI (SNB-78 CNS): > 100 µM | TGI (NCI-H23 lung): > 100 µM | TGI (SK-OV-3 ovarian): > 100 µM | TGI (EKVX NSCLC): > 100 µM | TGI (LOX IMVI melanoma): > 100 µM

— PubChem BioAssay (NCI)
